Assay results from patent publication US20210139484A1, “DIHYDROISOQUINOLINE-2(1H)-CARBOXAMIDE AND RELATED COMPOUNDS AND THEIR USE IN TREATING MEDICAL CONDITIONS” (GOSSAMER BIO SERVICES, INC., priority 2018, published 2021).

Biological target: T1, human HPK1 protein (Homo sapiens, UniProt Q92918)
T1 construct: recombinant human HPK1 protein (a.a. 1-346) was expressed in Sf9 insect cells; GST (N); purchased Signalchem M23-11G; host or cells: Sf9 insect cells (baculovirus)
T1 sequence (Q92918 1-346): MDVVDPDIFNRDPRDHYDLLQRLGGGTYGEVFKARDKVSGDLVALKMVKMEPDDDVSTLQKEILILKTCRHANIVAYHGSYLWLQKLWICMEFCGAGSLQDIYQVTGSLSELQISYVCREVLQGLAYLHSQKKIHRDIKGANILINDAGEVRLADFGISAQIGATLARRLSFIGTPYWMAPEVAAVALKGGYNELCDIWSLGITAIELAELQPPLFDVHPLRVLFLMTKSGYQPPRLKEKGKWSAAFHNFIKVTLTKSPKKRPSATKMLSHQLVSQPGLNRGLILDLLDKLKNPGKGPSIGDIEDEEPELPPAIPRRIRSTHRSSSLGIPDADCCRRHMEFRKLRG
Assay: Human HPK1 protein TR-FRET assay
Assay type: biochemical
Conditions: 1 mM ATP, Table 20
How it was run: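 GST-tagged HPK1 (a.a. 1-346, Sf9-expressed) at 10 nM phosphorylated 100 nM ULight CREBtide with 1 mM ATP in Tris pH 7.5, MgCl2, NP-40, DTT, 1% DMSO, 60 minutes at room temperature. Phospho-Ser133 detected by Eu-antibody TR-FRET (665/615 nm ratio); IC50 from 4-parameter fit against DMSO control.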

IC50 [nM]	Structure (SMILES)
< 500	CC[C@H]1CN(C(=O)Nc2ccc(CN3CCN(CCF)CC3)c(C(F)(F)F)c2)Cc2cc(Oc3ccnc4[nH]c(C(=O)N(C)C)cc34)cnc21 [XIV-138]
500 to 5000	CC[C@H]1CN(C(=O)Nc2ccc(CN3CCN(CC(F)F)CC3)c(C(F)(F)F)c2)Cc2cc(Oc3ccnc4[nH]c(C(=O)N(C)C)cc34)cnc21 [XIV-139]
> 10000	CC[C@H]1CN(C(=O)Nc2ccc(CN3CCN(CC(F)(F)F)CC3)c(C(F)(F)F)c2)Cc2cc(Oc3ccnc4[nH]c(C(=O)N(C)C)cc34)cnc21 [XIV-140]
< 500	CC[C@H]1CN(C(=O)Nc2ccc(CN3CCN(C)CC3)c(C(F)(F)F)c2)Cc2cc(Oc3c(F)cnc4[nH]c(C(=O)N(C)C)cc34)cnc21 [XIV-143]
< 500	CC[C@H]1CN(C(=O)Nc2ccc(CN3CCN(C)CC3)c(C(F)(F)F)c2)Cc2cc(Oc3ncnn4cc(C(=O)N(C)C)cc34)cnc21 [XIV-144]
< 500	CC[C@H]1CN(C(=O)Nc2ccc(CN3CCNCC3)c(C(F)(F)F)c2)Cc2cc(Oc3c(F)cnc4[nH]c(C(=O)N(C)C)cc34)cnc21 [XIV-145]
< 500	CC[C@H]1CN(C(=O)Nc2ccc(CN3CCNCC3)c(C(F)(F)F)c2)Cc2cc(Oc3ncnn4cc(C(=O)N(C)C)cc34)cnc21 [XIV-146]
< 500	CC[C@H]1CN(C(=O)Nc2ccc(CN3CCN(C)CC3)c(C(F)(F)F)c2)Cc2cc(Oc3ccnc4[nH]c(-c5cc[nH]n5)cc34)cnc21 [XIV-148]
< 500	CC[C@H]1CN(C(=O)Nc2ccc(CN3CCN(C)CC3)c(C(F)(F)F)c2)Cc2cc(Oc3ccnc4[nH]c(-c5cn[nH]c5)cc34)cnc21 [XIV-149]
< 500	CC[C@H]1CN(C(=O)Nc2ccc(CN3CCN(C)CC3)c(C(F)(F)F)c2)Cc2cc(Oc3ccnc4[nH]c(CS(C)(=O)=O)cc34)cnc21 [XIV-150]
< 500	CC[C@H]1CN(C(=O)Nc2ccc(CN3CCN(C)CC3)c(C(F)(F)F)c2)Cc2cc(Oc3ccnc4[nH]c(C5=CCOC5)cc34)cnc21 [XIV-151]
< 500	C=C(C)c1cc2c(Oc3cnc4c(c3)CN(C(=O)Nc3ccc(CN5CCN(C)CC5)c(C(F)(F)F)c3)C[C@@H]4CC)ccnc2[nH]1 [XIV-152]
< 500	CC[C@H]1CN(C(=O)Nc2ccc(CN3CCN(C)CC3)c(C(F)(F)F)c2)Cc2cc(Oc3ccnc4[nH]c(C(C)C)cc34)cnc21 [XIV-153]
< 500	CCC1CN(C(=O)Nc2ccc(CN3CCN(CC)CC3)c(C(F)(F)F)c2)Cc2cc(Oc3ccnc4[nH]c(C5=CCN(C(=O)C6CC6)CC5)cc34)cnc21 (stereo not shown) [XIV-155]
< 500	CC[C@@H]1CN(C(=O)Nc2ccc(CN3CCN(C)CC3)c(C(F)F)c2)Cc2cc(Oc3ncnc4[nH]c(C5CC5)cc34)ccc21 [XV-1]
< 500	CC[C@H]1CN(C(=O)Nc2ccc(CN3CCN(CCO)CC3)c(C(F)F)c2)Cc2cc(Oc3ncnc4[nH]c(C5CC5)cc34)ccc21 [XV-2]
< 500	CC[C@@H]1CN(C(=O)Nc2ccc(CN3CCNCC3)c(C(F)(F)F)c2)Cc2cc(Oc3ccnc4[nH]c(CO)cc34)ccc21 [XV-4]
< 500	CC[C@H]1CN(C(=O)Nc2ccc(CN3CCNCC3)c(C(F)(F)F)c2)Cc2cc(Oc3ccnc4[nH]c(CO)cc34)ccc21 [XV-5]
< 500	CC[C@@H]1CN(C(=O)Nc2ccc(CN3CCN(CCO)CC3)c(C(F)(F)F)c2)Cc2cc(Oc3ccnc4[nH]c(CO)cc34)ccc21 [XV-6]
< 500	CC[C@@H]1CN(C(=O)Nc2ccc(CN3CCN(CCO)CC3)c(C(F)F)c2)Cc2cc(Oc3ccnc4[nH]c(CO)cc34)ccc21 [XV-7]
< 500	CC[C@@H]1CN(C(=O)Nc2ccc(CN3CCN(C)CC3)c(C(F)F)c2)Cc2cc(Oc3ccnc4[nH]c(CO)cc34)ccc21 [XV-8]
< 500	CC[C@@H]1CN(C(=O)Nc2ccc(CN3CCNCC3)c(C(F)(F)F)c2)Cc2cc(Oc3ccnc4[nH]c(C5(O)COC5)cc34)ccc21 [XV-10]
< 500	CC[C@@H]1CN(C(=O)Nc2ccc(CN3CCN(C)CC3)c(C(F)(F)F)c2)Cc2cc(Oc3ccnc4[nH]c(C5(O)COC5)cc34)ccc21 [XV-12]
< 500	CC[C@@H]1CN(C(=O)Nc2ccc(CN3CCN(C)CC3)c(C(F)F)c2)Cc2cc(Oc3ccnc4[nH]c(C5(O)COC5)cc34)ccc21 [XV-14]
< 500	CC[C@@H]1CN(C(=O)Nc2ccc(CN3CCNCC3)c(C(F)(F)F)c2)Cc2cc(Oc3ccnc4[nH]c(C#N)cc34)ccc21 [XV-16]
< 500	CC[C@H]1CN(C(=O)Nc2ccc(CN3CCNCC3)c(C(F)(F)F)c2)Cc2cc(Oc3ccnc4[nH]c(C#N)cc34)ccc21 [XV-17]
< 500	CC[C@@H]1CN(C(=O)Nc2ccc(CN3CCN(C)CC3)c(C(F)F)c2)Cc2cc(Oc3ccnc4[nH]c(C#N)cc34)ccc21 [XV-18]
< 500	CC[C@@H]1CN(C(=O)Nc2ccc(CN3CCN(CCO)CC3)c(C(F)F)c2)Cc2cc(Oc3ccnc4[nH]c(C#N)cc34)ccc21 [XV-20]

IC50 [nM]	Structure (SMILES)
< 500	CC[C@H]1CN(C(=O)Nc2ccc(CN3CCN(CCO)CC3)c(C(F)F)c2)Cc2cc(Oc3ccnc4[nH]c(C#N)cc34)ccc21 [XV-21]
< 500	CC[C@H]1CN(C(=O)Nc2ccc(CN3CCN(CCO)CC3)c(C(F)(F)F)c2)Cc2cc(Oc3ccnc4[nH]c(CO)cc34)ccc21 [XV-22]
< 500	CC[C@@H]1CN(C(=O)Nc2ccc(CN3CCN(CCO)CC3)c(C(F)F)c2)Cc2cc(Oc3ccnc4[nH]c(C5CC5)cc34)ccc21 [XV-24]
< 500	CC[C@@H]1CN(C(=O)Nc2ccc(CN3CCN(CCO)CC3)c(C(F)(F)F)c2)Cc2cc(Oc3ccnc4[nH]c(C5CC5)cc34)ccc21 [XV-26]
< 500	CC[C@H]1CN(C(=O)Nc2ccc(CN3CCN(C)CC3)c(C(F)(F)F)c2)Cc2cc(Oc3ccnc4[nH]c(C#N)cc34)ccc21 [XV-28]
< 500	CC[C@H]1CN(C(=O)Nc2ccc(CN3CCN(C)CC3)c(C(F)(F)F)c2)Cc2cc(Oc3ccnc4[nH]c(C(N)=O)cc34)ccc21 [XV-30]
< 500	C[C@H]1CN(C(=O)Nc2ccc(CN3CCN(C)CC3)c(C(F)(F)F)c2)Cc2cc(Oc3ccnc4[nH]c(C(N)=O)cc34)ccc21 [XV-31]
< 500	C[C@H]1CN(C(=O)Nc2ccc(CN3CCN(C)CC3)c(C(F)(F)F)c2)Cc2cc(Oc3ccnc4[nH]c(C5(O)COC5)cc34)ccc21 [XV-32]
< 500	C[C@H]1CN(C(=O)Nc2ccc(CN3CCN(C)CC3)c(C(F)F)c2)Cc2cc(Oc3ccnc4[nH]c(C5(O)COC5)cc34)ccc21 [XV-33]
< 500	C[C@H]1CN(C(=O)Nc2ccc(CN3CCN(C)CC3)c(C(F)(F)F)c2)Cc2cc(Oc3ccnc4[nH]c(C#N)cc34)ccc21 [XV-34]
< 500	C[C@H]1CN(C(=O)Nc2ccc(CN3CCN(CCO)CC3)c(C(F)(F)F)c2)Cc2cc(Oc3ccnc4[nH]c(C#N)cc34)ccc21 [XV-36]
< 500	C[C@H]1CN(C(=O)Nc2ccc(CN3CCN(C)CC3)c(C(F)(F)F)c2)Cc2cc(Oc3c(F)cnc4[nH]c(CO)cc34)ccc21 [XV-38]
< 500	C[C@H]1CN(C(=O)Nc2ccc(CN3CCN(C)CC3)c(C(F)(F)F)c2)Cc2cc(Oc3c(F)cnc4[nH]c(C(=O)N(C)C)cc34)ccc21 [XV-39]
< 500	CCC1CN(C(=O)Nc2ccc(CN3CCN(CC)CC3)c(C(F)(F)F)c2)Cc2cc(Oc3ccnc4[nH]c(C5CCN(C(=O)C6CC6)CC5)cc34)ccc21 (stereo not shown) [XV-40]
< 500	CC[C@H]1CN(C(=O)Nc2ccc(CN3CCN(CCO)CC3)c(C(F)F)c2)Cc2cc(Oc3ccnc4[nH]c(C(N)=O)cc34)ccc21 [XV-41]
< 500	CC[C@@H]1CN(C(=O)Nc2ccc(CN3CCN(CCO)CC3)c(C(F)F)c2)Cc2cc(Oc3ncnc4[nH]c(C5CC5)cc34)ccc21 [XV-42]
< 500	C[C@@H]1Cc2ccc(Oc3ccnc4[nH]c(C(=O)N(C)C)cc34)cc2CN1C(=O)Nc1ccc(CN2CCN(C)CC2)c(C(F)(F)F)c1 [XVI-1]
< 500	C[C@@H]1Cc2ccc(Oc3ccnc4[nH]c(C5(O)CC5)cc34)cc2CN1C(=O)Nc1ccc(CN2CCN(C)CC2)c(C(F)(F)F)c1 [XVI-2]
< 500	C[C@@H]1Cc2ccc(Oc3ccnc4[nH]c(C5(O)CC5)cc34)cc2CN1C(=O)Nc1cnc(CN2CCN(C)CC2)c(C(F)(F)F)c1 [XVI-3]
< 500	C[C@@H]1Cc2ccc(Oc3c(F)cnc4[nH]c(-c5cnn(C)c5)cc34)cc2CN1C(=O)Nc1ccc(CN2CCN(C)CC2)c(C(F)(F)F)c1 [XVI-4]
< 500	C[C@@H]1Cc2ccc(Oc3c(F)cnc4[nH]c(-c5cnn(C)c5)cc34)cc2CN1C(=O)Nc1cnc(CN2CCN(C)CC2)c(C(F)(F)F)c1 [XVI-5]
< 500	C[C@@H]1Cc2ccc(Oc3ccnc4[nH]c(C(=O)N(C)C)cc34)cc2CN1C(=O)Nc1cnc(O[C@@H]2CCN(C)C[C@@H]2O)c(C(F)(F)F)c1 [XVI-6]
< 500	C[C@@H]1Cc2ccc(Oc3ccnc4[nH]c(C(=O)N(C)C)cc34)cc2CN1C(=O)Nc1cnc(OC2CCN(C)CC2)c(C(F)(F)F)c1 [XVI-7]
< 500	C[C@@H]1Cc2ccc(Oc3c(F)cnc4[nH]c(C5(O)CC5)cc34)cc2CN1C(=O)Nc1cnc(CN2CCN(C)CC2)c(C(F)(F)F)c1 [XVI-8]
< 500	C[C@@H]1Cc2ccc(Oc3c(F)cnc4[nH]c(C5(O)CC5)cc34)cc2CN1C(=O)Nc1ccc(CN2CCN(C)CC2)c(C(F)(F)F)c1 [XVI-9]
< 500	C[C@@H]1Cc2ccc(Oc3ccnc4[nH]c(C(=O)N(C)C)cc34)cc2CN1C(=O)Nc1cnc(CN2CCN(C)CC2)c(C(F)(F)F)c1 [XVI-10]
< 500	CCC1CN(C(=O)Nc2ccc(CN3CCN(CC)CC3)c(C(F)(F)F)c2)Cc2cc(Nc3c(F)cnc4[nH]c(-c5cnn(C)c5)cc34)cnc21 (stereo not shown) [XVII-1]
